Laboratory results taken from patent publication US6833456B2, “Indolyl-urea derivatives of thienopyridines useful as antiangiogenic agents, and methods for their use” (Agouron Pharmaceuticals, Inc., priority 2002, dated 2004).
Values joined by “and” are separate entries in the source; they are usually repeats but may differ in a detail not shown here. Identical values can stand only once.

Columns and labels:
KDR (VEGFR2) = target: T1, KDR (VEGFR2) (Homo sapiens, UniProt P35968); experiment: KDR (VEGFR2) phosphorylation in PAE-KDR cells assay; format: cell-based; settings: PAE cells overexpressing human KDR, VEGF stimulated; read-out: PAE KDR autophos IC50
T1 construct: expressed in transfected cells; host or cells: porcine aorta endothelial (PAE) cells
T1 sequence (P35968 20-1356): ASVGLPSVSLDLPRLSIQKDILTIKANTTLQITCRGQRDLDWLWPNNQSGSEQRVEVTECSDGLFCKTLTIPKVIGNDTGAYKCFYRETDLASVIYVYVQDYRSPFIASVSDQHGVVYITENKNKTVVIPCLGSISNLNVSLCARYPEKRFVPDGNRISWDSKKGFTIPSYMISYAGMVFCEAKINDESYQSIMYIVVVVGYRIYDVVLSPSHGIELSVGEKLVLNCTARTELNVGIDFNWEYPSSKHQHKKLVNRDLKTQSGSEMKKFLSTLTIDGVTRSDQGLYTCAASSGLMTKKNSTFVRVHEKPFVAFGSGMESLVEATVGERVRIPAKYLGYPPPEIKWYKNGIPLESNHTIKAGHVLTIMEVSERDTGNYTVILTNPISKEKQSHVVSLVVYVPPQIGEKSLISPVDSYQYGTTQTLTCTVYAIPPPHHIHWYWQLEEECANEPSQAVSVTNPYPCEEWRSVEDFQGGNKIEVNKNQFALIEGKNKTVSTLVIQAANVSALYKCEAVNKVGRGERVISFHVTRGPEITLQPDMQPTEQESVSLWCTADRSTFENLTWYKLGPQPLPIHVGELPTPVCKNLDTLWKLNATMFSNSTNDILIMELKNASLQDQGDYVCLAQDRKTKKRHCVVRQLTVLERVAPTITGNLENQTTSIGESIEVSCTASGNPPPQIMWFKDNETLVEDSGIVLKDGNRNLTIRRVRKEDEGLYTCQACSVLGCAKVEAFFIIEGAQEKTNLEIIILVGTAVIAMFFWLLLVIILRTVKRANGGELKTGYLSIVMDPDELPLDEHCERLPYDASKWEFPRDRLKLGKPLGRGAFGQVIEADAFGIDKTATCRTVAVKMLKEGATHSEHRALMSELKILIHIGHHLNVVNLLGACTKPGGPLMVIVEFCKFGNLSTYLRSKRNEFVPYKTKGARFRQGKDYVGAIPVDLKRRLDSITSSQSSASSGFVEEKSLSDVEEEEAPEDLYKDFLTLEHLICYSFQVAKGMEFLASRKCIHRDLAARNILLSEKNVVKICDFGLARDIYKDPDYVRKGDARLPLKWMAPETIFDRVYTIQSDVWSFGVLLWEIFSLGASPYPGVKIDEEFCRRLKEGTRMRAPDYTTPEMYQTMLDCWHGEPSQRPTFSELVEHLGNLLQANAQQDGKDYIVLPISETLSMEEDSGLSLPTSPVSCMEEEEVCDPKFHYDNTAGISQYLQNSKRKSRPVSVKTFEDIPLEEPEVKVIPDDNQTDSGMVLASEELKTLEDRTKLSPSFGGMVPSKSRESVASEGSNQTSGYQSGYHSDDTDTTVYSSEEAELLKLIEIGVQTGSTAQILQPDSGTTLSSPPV
Description: This assay determines the ability of a test compound to inhibit the autophosphorylation of KDR in porcine aorta endothelial (PAE)-KDR cells. PAE cells that overexpress human KDR were used in this assay. The cells were cultured in Ham's F12 media supplemented with 10% fetal bovine serum (FBS) and 400 ug/mL G418. Thirty thousands cells were seeded into each well of a 96-well plate in 75 μL of growth media and allowed to attach for 6 hours at 37° C. Cells were then exposed to the starvation media (Ham's F12 media supplemented with 0.1% FBS) for 16 hours. After the starvation period was over, 10 μL of test agent in 5% DMSO in starvation media were added to the test wells and 10 μL of the vehicle (5% DMSO in starvation media) were added into the control wells. The final DMSO concentration in each well was 0.5%. Plates were incubated at 37° C. for 1 hour and the cells were then stimulated with 500 ng/ml VEGF (commercially available from R & D System) in the presence of 2 mM Na3VO4 for 8 minutes. The cells were washed once with 1 mm Na3VO4 in HBSS and lysed by adding 50 μL per well of lysis buffer. One hundred μL of dilution buffer were then added to each well and the diluted cell lysate was transferred to a 96-well goat ant-rabbit coated plate (commercially available from Pierce) which was pre-coated with Rabbit anti Human Anti-flk-1 C-20 antibody (commercially available from Santa Cruz). The plates were incubated at room temperature for 2 hours and washed seven times with 1% Tween 20 in PBS. HRP-PY20 (commercially available from Santa Cruz) was diluted and added to the plate for a 30-minute incubation. Plates were then washed again and TMB peroxidase substrate (commercially available from Kirkegaard & Perry) was added for a 10-minute incubation. One hundred μL of 0.09 N H2SO4 was added to each well of the 96-well plates to stop the reaction. Phosphorylation status was assessed by spectrophotometer reading at 450 nm. IC50 values were calculated by curve fitting using a four-parameter analysis.

[1] = system: human umbilical vein endothelial cells (HUVEC); experiment: HUVEC+VEGF proliferation assay; format: cell-based; settings: Homo sapiens, HUVEC, 72 h, VEGF 6 ng/mL, MTT
Description: This assay determines the ability of a test compound to inhibit the growth factor-stimulated proliferation of human umbilical vein endothelial cells (“HUVEC”). HUVEC cells (passage 3-4, Clonetics, Corp.) were thawed into EGM2 culture medium (Clonetics Corp) in T75 flasks. Fresh EGM2 medium was added to the flasks 24 hours later. Four or five days later, cells were exposed to another culture medium (F12K medium supplemented with 10% fetal bovine serum (FBS), 60 μg/mL endothelial cell growth supplement (ECGS), and 0.1 mg/mL heparin). Exponentially-growing HUVEC cells were used in experiments thereafter. Ten to twelve thousand HUVEC cells were plated in 96-well dishes in 100 μl of rich, culture medium (described above). The cells were allowed to attach for 24 hours in this medium. The medium was then removed by aspiration and 105 μl of starvation media (F12K+1% FBS) was added to each well. After 24 hours, 15 μl of test agent dissolved in 1% DMSO in starvation medium or this vehicle alone was added into each treatment well; the final DMSO concentration was 0.1%. One hour later, 30 μl of VEGF (30 ng/mL) in starvation media was added to all wells except those containing untreated controls; the final VEGF concentration was 6 ng/mL. Cellular proliferation was quantified 72 hours later by MTT dye reduction, at which time cells were exposed for 4 hours MTT (Promega Corp.). Dye reduction was stopped by addition of a stop solution (Promega Corp.) and absorbance at 595 nm was determined on a 96-well spectrophotometer plate reader.

[2] = target: T2, unphosphorylated VEGF-R2Δ50 (FLVK) (Homo sapiens, UniProt P35968, DEL940-989/E990V); experiment: VEGF-R2 coupled spectrophotometric assay, unphosphorylated construct (FLVK); format: biochemical; settings: for inhibition at 0.05 µM: percent inhibition at 50 nM
T2 construct: VEGF-R2Δ50 contains residues 806-939 and 990-1171; made in house; host or cells: baculovirus/insect cell system
T2 sequence (P35968 with tags, fused parts or gaps DEL940-989/E990V limits assumed): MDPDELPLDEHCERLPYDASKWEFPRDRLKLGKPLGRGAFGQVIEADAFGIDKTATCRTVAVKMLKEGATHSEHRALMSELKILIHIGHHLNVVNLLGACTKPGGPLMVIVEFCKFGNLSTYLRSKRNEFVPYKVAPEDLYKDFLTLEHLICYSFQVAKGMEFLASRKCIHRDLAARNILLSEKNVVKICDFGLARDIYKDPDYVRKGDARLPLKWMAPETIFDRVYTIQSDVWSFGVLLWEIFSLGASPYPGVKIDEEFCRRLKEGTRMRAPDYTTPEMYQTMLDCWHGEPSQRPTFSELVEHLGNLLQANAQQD
Method in brief: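 Continuous coupled assay (PEP, PK, LDH; NADH loss at 340 nm) in 200 mM HEPES pH 7.5 with 3 mM ATP, 20 mM poly(E4Y1), 60 mM MgCl2 plus 2 mM MnCl2, started with 5-40 nM non-autophosphorylated VEGF-R2Δ50. Ki values from activity across compound concentrations, Morrison fit.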

PDGFRβ = target: T3, PDGFRβ (Homo sapiens, UniProt P09619); experiment: PAE-PDGFRβ phosphorylation in PAE-PDGFRB cells assay; format: cell-based; settings: PAE cells overexpressing human PDGFRβ, PDGF-BB stimulated; read-out: PAE PDGFR autophos IC50
T3 construct: expressed in transfected cells; host or cells: porcine aorta endothelial (PAE) cells
T3 sequence (P09619 33-1106): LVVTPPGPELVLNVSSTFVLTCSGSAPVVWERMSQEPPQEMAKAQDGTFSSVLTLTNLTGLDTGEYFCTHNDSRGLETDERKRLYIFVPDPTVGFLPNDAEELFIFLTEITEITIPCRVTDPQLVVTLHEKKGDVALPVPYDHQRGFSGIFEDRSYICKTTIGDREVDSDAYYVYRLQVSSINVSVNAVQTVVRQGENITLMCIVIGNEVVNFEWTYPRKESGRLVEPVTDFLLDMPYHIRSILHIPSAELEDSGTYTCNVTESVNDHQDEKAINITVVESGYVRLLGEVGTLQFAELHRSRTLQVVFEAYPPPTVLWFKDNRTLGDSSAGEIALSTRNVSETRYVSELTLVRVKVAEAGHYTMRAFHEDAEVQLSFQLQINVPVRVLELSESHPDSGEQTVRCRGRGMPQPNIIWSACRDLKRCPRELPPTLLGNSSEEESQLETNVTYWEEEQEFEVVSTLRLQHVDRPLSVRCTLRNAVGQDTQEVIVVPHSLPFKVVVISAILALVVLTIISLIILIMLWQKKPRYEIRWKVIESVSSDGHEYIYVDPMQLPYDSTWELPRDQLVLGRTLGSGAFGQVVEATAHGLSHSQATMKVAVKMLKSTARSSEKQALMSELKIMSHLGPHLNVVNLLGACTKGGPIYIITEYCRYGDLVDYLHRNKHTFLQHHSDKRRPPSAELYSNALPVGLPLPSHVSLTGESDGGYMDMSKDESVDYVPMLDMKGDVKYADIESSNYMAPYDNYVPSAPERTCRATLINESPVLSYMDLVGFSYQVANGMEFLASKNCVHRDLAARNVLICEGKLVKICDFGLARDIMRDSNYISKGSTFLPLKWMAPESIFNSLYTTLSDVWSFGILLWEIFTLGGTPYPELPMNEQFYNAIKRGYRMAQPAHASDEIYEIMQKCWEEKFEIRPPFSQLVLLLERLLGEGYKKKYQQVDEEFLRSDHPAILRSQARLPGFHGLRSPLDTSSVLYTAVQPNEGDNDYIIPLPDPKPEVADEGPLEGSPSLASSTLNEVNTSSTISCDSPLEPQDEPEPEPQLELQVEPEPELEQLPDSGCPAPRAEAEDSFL
Method in brief: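 PAE cells overexpressing human PDGFRβ, serum-starved 16 h (0.1% FBS), compound 1 h at 37° C (0.5% DMSO), then 1 μg/mL PDGF-BB with 2 mM Na3VO4 for 8 min. Receptor captured by anti-PDGFRβ, phosphotyrosine detected by HRP-PY20/TMB at 450 nm; IC50 by four-parameter fit.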

HUVEC = experiment: bFGF HUVEC proliferation; format: cell-based, human; settings: Homo sapiens, HUVEC, bFGF stimulated HUVEC

| SMILES | IC50 (KDR (VEGFR2)) | IC50 [1] [nM] | Ki [2] [nM] | inhibition at 0.05 µM [2] [%] | IC50 (PDGFRβ) | IC50 (HUVEC) [nM] |
| --- | --- | --- | --- | --- | --- | --- |
| C#CCNC(=O)n1c(C)cc2cc(Nc3ccnc4cc(C(=O)N5CCC[C@@H]5CO)sc34)ccc21 [Example 1e, 5-[2-(2R-Hydroxymethyl-pyrrolidine-1-carbonyl)-thieno[3,2-b]pyridin-7-ylamino]-2-methyl-indole-1-carboxylic acid prop-2-ynylamide] | 0.73 nM and 0.41 nM | 0.18 | 0.51 | 97 | 11.3 nM |  |
| CO[C@H]1CN(C(=O)c2cc3nccc(Nc4ccc5c(c4)cc(C)n5C(=O)NC4CC4)c3s2)C[C@@H]1OC [Example 1s, 5-[2-(3S,4S-Dimethoxy-pyrrolidine-1-carbonyl)-thieno[3,2-b]pyridin-7-ylamino]-2-methyl-indole-1-carboxylic acid cyclopropylamide] | 0.42 nM and 0.7 nM | 0.308 | 1.1 | 98 | 165 nM and 98 nM |  |
| CNC(=O)n1c(C)cc2cc(Nc3ccnc4cc(C(=O)N5C[C@H](O)C[C@H]5C(C)(C)O)sc34)ccc21 [Example 3d, 5-{2-[(2S,4R)-4-Hydroxy-2-(1-hydroxy-1-methyl-ethyl)-pyrrolidine-1-carbonyl]-thieno[3,2-b]pyridin-7-ylamino}-2-methyl-indole-1-carboxylic acid methylamide] | 2.7 nM and 6.9 nM | 61.6 | 1.11 | 60 | > 1000 nM |  |
| C#CCNC(=O)n1c(C)cc2cc(Oc3ccnc4cc(C(=O)N5C[C@H](OC)[C@@H](OC)C5)sc34)ccc21 [Example 4q, 5-[2-(3S,4S-Dimethoxy-pyrrolidine-1-carbonyl)-thieno[3,2-b]pyridin-7-yloxy]-2-methyl-indole-1-carboxylic acid prop-2-ynylamide] | 0.26 nM | 0.27 | 0.475 | 98 |  |  |
| Cc1cc2c(F)c(Oc3ccnc4cc(C(=O)N5CCC[C@H]5CO)sc34)ccc2n1C(=O)NC1CC1 [Example 5d, 4-Fluoro-5-[2-(2S-hydroxymethyl-pyrrolidine-1-carbonyl)-thieno[3,2-b]pyridin-7-yloxy]-2-methyl-indole-1-carboxylic acid cyclopropylamide] | 0.53 nM and 0.44 nM and 0.275 nM | 0.35 | 0.324 | 96 | 21.5 nM |  |
| CNC(=O)n1c(C)cc2c(F)c(Oc3ccnc4cc(C(=O)N5CC[C@H](OC)C5)sc34)ccc21 [Example 5f, 4-Fluoro-5-[2-(3S-methoxy-pyrrolidine-1-carbonyl)-thieno[3,2-b]pyridin-7-yloxy]-2-methyl-indole-1-carboxylic acid methylamide] | 0.178 nM | 0.116 | 0.095 | 100 | 9.9 nM |  |
| CO[C@H]1CCN(C(=O)c2cc3nccc(Oc4ccc5c(cc(C)n5C(=O)NC5CC5)c4F)c3s2)C1 [Example 5h, 4-Fluoro-5-[2-(3S-methoxy-pyrrolidine-1-carbonyl)-thieno[3,2-b]pyridin-7-yloxy]-2-methyl-indole-1-carboxylic acid cyclopropylamide] | 0.29 nM | 0.28 | 0.52 | 98 | 9.9 nM |  |
| CNC(=O)n1c(C)c(Cl)c2c(F)c(Oc3ccnc4cc(C(=O)N5CC[C@H](OC)C5)sc34)ccc21 [Example 6b, 3-Chloro-4-fluoro-5-[2-(3S-methoxy-pyrrolidine-1-carbonyl)-thieno[3,2-b]pyridin-7-yloxy]-2-methyl-indole-1-carboxylic acid methylamide] | 0.952 nM | 1.46 | 0.647 | 99 | 21.2 nM |  |
| CO[C@H]1CCN(C(=O)c2cc3nccc(Oc4ccc5c(c4F)c(Cl)c(C)n5C(=O)NC4CC4)c3s2)C1 [Example 6c, 3-Chloro-4-fluoro-5-[2-(3S-methoxy-pyrrolidine-1-carbonyl)-thieno[3,2-b]pyridin-7-yloxy]-2-methyl-indole-1-carboxylic acid cyclopropyl-amide] | 1.27 nM | 0.99 | 0.688 | 97 | 32 nM |  |
| Cc1cc2cc(Oc3ccnc4cc(C(=O)N5CCC5)sc34)ccc2n1C(=O)NCCCO [Example 8n, 5-[2-(Azetidine-1-carbonyl)-thieno[3,2-b]pyridin-7-yloxy]-2-methyl-indole-1-carboxylic acid (3-hydroxy-propyl)-amide] |  |  | 0.089 | 97 | 10.2 nM | 58 |
| CO[C@H]1CCN(C(=O)c2cc3nccc(Oc4ccc5c(c4)cc(C)n5C(=O)NCCCO)c3s2)C1 [Example 9b, 5-[2-(3S-Methoxy-pyrrolidine-1-carbonyl)-thieno[3,2-b]pyridin-7-yloxy]-2-methyl-indole-1-carboxylic acid (3-hydroxy-propyl)-amide] | 0.67 nM | 0.33 | 0.488 | 97 | 60 nM |  |
| CO[C@H]1CCN(C(=O)c2cc3nccc(Oc4ccc5c(c4)cc(C)n5C(=O)NCCO)c3s2)C1 [Example 9c, 5-[2-(3S-Methoxy-pyrrolidine-1-carbonyl)-thieno[3,2-b]pyridin-7-yloxy]-2-methyl-indole-1-carboxylic acid (2-hydroxy-ethyl)-amide] | 1.44 nM and 1.1 nM |  | 3.24 | 81 | 56 nM |  |
| CCNC(=O)n1c(C)cc2cc(Oc3ccnc4cc(C(=O)N5CC[C@H](OC)C5)sc34)ccc21 [Example 9e, 5-[2-(3S-Methoxy-pyrrolidine-1-carbonyl)-thieno[3,2-b]pyridin-7-yloxy]-2-methyl-indole-1-carboxylic acid ethylamide] | 0.24 nM |  | 0.105 | 99 | 26 nM |  |
